The text below walks through data of ChEMBL document CHEMBL1201862, “PubChem BioAssay data set” (2004).

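In this assay, cells in 96-well plates receive the compound at five concentrations for 48 hours. Endpoints are linearly interpolated between the surrounding concentrations. GI50 marks 50% less growth.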 The source made the active and inactive calls. Cut-off read from the data, not from the text of the source: active = GI50 up to about 1.1 µM and inactive = higher.

Experiment in all cases: inhibition of tumour cell growth, NCI panel, 48 h
For assay [1], the system named is UACC-62.
The subject of assay [2] is IGROV-1.
Assay [3] has as its system UO-31.
Assay [4] deals with RPMI-8226.
In assay [5] the test system is HOP-92.
For assay [6], the system named is KM12.
Assay [7] deals with SNB-19.
Assay [8] relates to SR.
Assay [9] relates to HCT-15.
Assay [10] relates to SK-MEL-28.
Assay [11] has as its system OVCAR-8.
For assay [12], the system named is SN12C.
In assay [13] the test system is OVCAR-4.
In assay [14] the test system is SK-MEL-2.
The test system of assay [15] is U-251.
Assay [16] relates to ACHN.
For assay [17], the system named is SK-OV-3.
The subject of assay [18] is LOX IMVI.

Turning to `COC(=O)C(=O)C(C(=O)C(=O)Nc1cc(C)ccc1C)c1nc2ccc(C(=O)c3ccccc3)cc2nc1O` (configuration not stated), the GI50 in [1] is 37.2 µM (inactive); in [2], > 100 µM (inactive); in assay [3], 52.7 µM (inactive); in assay [4], 94.2 µM (inactive); in assay [5], 45.8 µM (inactive); in assay [6] it was 71.4 µM (inactive). Moreover, the GI50 in [7] is > 100 µM (inactive); in assay [8], 68.5 µM (inactive); in assay [9] it was over 100 µM; in [10], > 10 µM (inactive); in assay [11], > 100 µM (inactive); in [12], > 100 µM (inactive). The GI50 in [13], in assay [14], in assay [15] and in [16] was > 100 µM (inactive) in each case.

In the case of `CC(C)(C)[C@H]1CO[C@]2(c3ccccc3)[C@@H]3C[C@@H]3C(=O)N12`, the GI50 in assay [1], in [2], in assay [17], in [3], in assay [4] and in assay [5] was > 100 µM (inactive) throughout. In addition, the GI50 in [6] was > 100 µM (inactive); in assay [7] it was > 100 µM (inactive); in assay [8] it was > 100 µM (inactive); in [9], over 100 µM; in assay [10], > 100 µM (inactive); in assay [11] it was > 100 µM (inactive). For the same compound, the GI50 in [12], in assay [13], in assay [18], in assay [14], in [15] and in [16] was > 100 µM (inactive) each time.

In the case of `COc1cc(Cl)cc(N(O)C(C)=O)c1OCc1ccccc1`, the GI50 in [1] is 49.7 µM (inactive); in assay [2], > 100 µM (inactive); in assay [17], 74 µM (inactive); in assay [3], 51.8 µM (inactive); in [4], 96.6 µM (inactive); in assay [5], > 100 µM (inactive). For the same compound, the GI50 is > 100 µM (inactive) in assay [6]; 80.9 µM (inactive) in assay [7]; 44.3 µM (inactive) in assay [8]; 51.4 µM in [9]; > 100 µM (inactive) in [10]; 70.8 µM (inactive) in assay [11]. The GI50 in assay [12] is > 100 µM (inactive); in [13], > 100 µM (inactive); in [18] it was 77.6 µM (inactive); in assay [15], 80.4 µM (inactive); in [16], 63.4 µM (inactive).

Consider `COc1ccc(NC(=O)CC/C(CC(=O)C(C)(C)C)=N\NC(=O)C(=O)NN)cc1`, for which the GI50 is > 100 µM (inactive) in assay [1]; > 100 µM (inactive) in assay [2]; > 100 µM (inactive) in assay [17]; > 100 µM (inactive) in assay [3]; > 100 µM (inactive) in assay [4]; 56.5 µM (inactive) in assay [5]. In addition, the GI50 is > 100 µM (inactive) in [6]; > 100 µM (inactive) in [7]; > 100 µM (inactive) in assay [8]; over 100 µM in assay [9]; > 100 µM (inactive) in [10]; > 100 µM (inactive) in assay [12]. Moreover, the GI50 in assay [13], in [18], in [14], in assay [15] and in [16] was > 100 µM (inactive) each time.

On to `O=c1[nH]cnc2c(COCCO)c[nH]c12`, for which the GI50 in assay [1], in [2], in assay [17], in [3], in assay [4] and in assay [5] was > 100 µM (inactive) throughout. For the same compound, the GI50 in assay [6] is > 100 µM (inactive); in assay [7], > 100 µM (inactive); in [8] it was > 100 µM (inactive); in [9], over 100 µM; in assay [10], > 100 µM (inactive); in [11] it was > 100 µM (inactive). Moreover, the GI50 in assay [12], in assay [13], in assay [18], in assay [14], in assay [15] and in assay [16] was > 100 µM (inactive) throughout.

In the case of `CN(C)/C=C/C(=CC=[N+](C)C)/C=C/N(C)C.[O-][Cl+3]([O-])([O-])[O-]`, the GI50 in assay [1] was > 100 µM (inactive); in assay [2], > 100 µM (inactive); in [17], 16.7 µM (inactive); in assay [3], > 100 µM (inactive); in [4], > 100 µM (inactive); in assay [5], > 100 µM (inactive). The GI50 in assay [6], in assay [7], in [8], in assay [10], in assay [11] and in assay [12] was > 100 µM (inactive) in each case. For the same compound, the GI50 in [13] is > 100 µM (inactive); in assay [18] it was 57 µM (inactive); in assay [14] it was > 100 µM (inactive); in assay [15] it was > 100 µM (inactive); in assay [16], > 100 µM (inactive).

With `Cc1c(N)c(C#N)c2n(C)c3ncccc3n2c1=O`, the GI50 in [1], in [17], in [3], in assay [4], in [5] and in assay [6] was > 100 µM (inactive) in each case. In addition, the GI50 is > 100 µM (inactive) in assay [7]; > 100 µM (inactive) in assay [8]; over 100 µM in assay [9]; > 100 µM (inactive) in [10]; > 100 µM (inactive) in assay [11]; > 100 µM (inactive) in [12]. Besides, the GI50 in assay [13], in assay [18], in assay [14], in assay [15] and in assay [16] was > 100 µM (inactive) in each case.

With `CCOC(=O)C1(C(=O)OCC)C(C(C)(C)C)=C(C)c2ccccc21`, the GI50 is 12.9 µM (inactive) in assay [1]; 14.5 µM (inactive) in assay [2]; 24.2 µM (inactive) in assay [17]; 15.4 µM (inactive) in assay [3]; 7.89 µM (inactive) in assay [4]; 3.4 µM (inactive) in assay [5]. Further, the GI50 is 12.6 µM (inactive) in [6]; 19.9 µM (inactive) in assay [7]; 39.1 µM (inactive) in [8]; 13.7 µM in assay [9]; 12.5 µM (inactive) in [10]; 20.6 µM (inactive) in assay [11]. The GI50 was 15.3 µM (inactive) in assay [12]; 14.9 µM (inactive) in assay [13]; 12.3 µM (inactive) in assay [18]; 18.5 µM (inactive) in [14]; 15.3 µM (inactive) in assay [15]; 13.2 µM (inactive) in assay [16].

In the case of `COC(=O)C1=CC2C(=O)OC1CC2C#N` (configuration not stated), the GI50 in assay [1], in assay [2], in assay [17], in [3], in assay [4] and in assay [5] was > 100 µM (inactive) each time. Besides, the GI50 in assay [6], in assay [7], in assay [8], in assay [10], in assay [11] and in assay [12] was > 100 µM (inactive) each time. Moreover, the GI50 in assay [13], in assay [18], in assay [15] and in [16] was > 100 µM (inactive) in each case.

On to `C=C1CC(CC(=O)C(C)CC2CC(=C)C(=O)O2)OC1=O` (configuration not stated), for which the GI50 in assay [1] was 15.8 µM (inactive); in [2] it was 32.8 µM (inactive); in assay [17], > 100 µM (inactive); in assay [3], > 100 µM (inactive); in [5], 17.7 µM (inactive); in assay [6], 10.5 µM (inactive). In addition, the GI50 in assay [7] was > 100 µM (inactive); in assay [8], 3.3 µM (inactive); in assay [9], 18.1 µM; in assay [10], 15.8 µM (inactive); in assay [11] it was 28 µM (inactive); in [12], 16.7 µM (inactive). Besides, the GI50 is 16.4 µM (inactive) in [13]; 15.6 µM (inactive) in [18]; 9.35 µM (inactive) in [14]; 71.4 µM (inactive) in assay [15]; 18.6 µM (inactive) in [16].

Consider `CN(C)CC1CCC(CN(C)C)C1=NO` (configuration not stated), for which the GI50 in [1] is > 100 µM (inactive); in [2], > 100 µM (inactive); in assay [3], > 100 µM (inactive); in [4] it was > 100 µM (inactive); in assay [5], > 100 µM (inactive); in assay [8], 29 µM (inactive). Moreover, the GI50 was over 100 µM in assay [9]; > 100 µM (inactive) in assay [10]; > 100 µM (inactive) in assay [11]; > 100 µM (inactive) in assay [12]; > 100 µM (inactive) in assay [13]; > 100 µM (inactive) in [18]. In assay [16], the GI50 was > 100 µM (inactive).

For the compound `CCCCCCCC(=O)OCC1OC(n2cc(F)c(=O)[nH]c2=O)C(NC(=O)OCc2ccccc2)C(O)C1O` (configuration not stated), the GI50 in assay [1] was 32.1 µM (inactive); in [2], > 100 µM (inactive); in assay [17], > 100 µM (inactive); in assay [3], > 100 µM (inactive); in [4] it was 26.4 µM (inactive); in assay [5] it was 23.8 µM (inactive). The GI50 is 32.4 µM (inactive) in [6]; 53.3 µM (inactive) in [7]; 31.8 µM (inactive) in assay [8]; over 100 µM in [9]; > 100 µM (inactive) in assay [10]; > 100 µM (inactive) in assay [11]. Further, the GI50 in [12] was 32.9 µM (inactive); in assay [13], > 100 µM (inactive); in assay [18], 37.1 µM (inactive); in assay [14], 20.4 µM (inactive); in assay [15] it was 80.2 µM (inactive); in assay [16], > 100 µM (inactive).
